# Structures can show the parent of a compound that is named as a salt.
# Legend:
# [1] = Effects of antioxidants on degradation of CYT-0387 Form II in aqueous solution (HPLC); assay type: physicochemical
# Protocol: This was determined from the study that investigated the potential effects of different antioxidants in inhibiting or preventing degradation of CYT-0387 dihydrochloride monohydrate Form II. In the initial study, five antioxidants of three different mechanisms of action were examined: free radical scavenger antioxidants (propyl gallate, butylated hydroxyanisole (BHA), and butylated hydroxytoluene (BHT)), a sacrificial reductant (ascorbic acid), and an oxygen scavenger (sodium metabisulfite).
# Aqueous solutions containing 20 μg/mL of CYT-0387 dihydrochlorid monohydrate Form II in 70% (v/v) 50 mM acetate buffer (pH 4.0) and 30% (v/v) methanol were incubated in absence (which was used as control) and presence of 0.1% (w/v) antioxidant at 60° C. for up to 7 days. At Day 0, 5 and 7, the solution was analyzed using a reverse-phase HPLC with a Zorbax SB-C8 column ([…].). […] While total degradation products could not be determined for 0.1% ascorbic acid due to interference, the main oxidative degradation products were not observed (data not shown).
# In additional studies, the effects of the lower concentrations of 0.01% and 0.001% (w/v) of propyl gallate, BHA, and ascorbic acid on the stability of CYT-0387 were examined under the same condition. […] Moreover, at 0.001% (w/v) antioxidant level, the presence of propyl gallate decreased or inhibited the degradation of CYT-0387 relative to BHA and ascorbic acid (Table 7).
# [2] = Phase 1 single dose PK study, Form II tablets vs Form I capsule, healthy subjects; details: human, in vivo
# Protocol: Tablets comprising CYT-0387 dihydrochloride monohydrate Form II (doses equivalent to 100, 150, 200, and 300 mg of the free base) and capsules comprising CYT-0387 dihydrochloride anhydrous Form I (dose equivalent to 300 mg of the free base) were evaluated in a Phase 1, single dose study in healthy subjects.
# Intensive PK and PD sampling occurred from 0.5 hour up to 36 hours post dose. Safety was monitored throughout the study. A parametric analysis of variance (ANOVA) using a mixed-effects model was used to fit to the natural logarithmic transformation of PK parameters (AUC and Cmax). The 90% confidence intervals were constructed for the ratio of geometric means of CYT-0387 dihydrochloride monohydrate Form II tablets at 100, 150, 200 and 300 mg vs CYT-0387 dihydrochloride anhydrous Form I capsule at 300 mg, using equivalence bounds of 70% to 143% for AUC and Cmax. The pharmacokinetic data is represented in Table 5.
# [3] = Relative bioavailability of CYT-0387 tablet vs capsule, food and omeprazole effect, healthy subjects; assay type: in vivo, human; details: from 100 to 800 mg
# Protocol: CYT-0387 is a selective small molecule inhibitor of Janus kinase 1 and 2 (JAK1/JAK2), and is currently under investigation to treat myelofibrosis. In a Phase 1/2 study in myelofibrosis patients, 300 mg CYT-0387 capsule once daily was selected as Phase 3 dose based on a favorable benefit:risk profile. An immediate release tablet formulation (CYT-0387 tablet) was developed for further clinical evaluation. The relative bioavailability of CYT-0387 tablet vs capsule was evaluated in this study to identify Phase 3 dose of CYT-0387 tablet. CYT-0387 tablet (100 to 300 mg) vs capsule (300 mg) pharmacokinetics (PK) after a single dose was evaluated in healthy subjects. CYT-0387 tablet PK at supratherapeutic doses (400 and 800 mg), under fed and fasted conditions, and with an acid reducing agent (i.e., omeprazole) was also evaluated. Intensive PK sampling occurred up to 36 hours postdose. Safety was monitored throughout the study. A parametric analysis of variance (ANOVA) using a mixed-effects model was used to fit to the natural logarithmic transformation of PK parameters (AUC and Cmax). The 90% confidence intervals were constructed for the ratio of geometric means of CYT-0387 tablet PK at 100, 150, 200 and 300 mg vs CYT-0387 capsule 300 mg, using equivalence bounds of 70% to 143% for AUC and Cmax. A similar approach was used to assess the effect of food and omeprazole.
# [4] = system: hepcidin production in HepG2 cells; test: BMP6-mediated hepcidin induction in HepG2 cells (qRT-PCR); assay type: cell-based; details: for hepcidin fold-change induction (normalized percentage): HepG2, 10 ng/mL BMP6 6 hours, 100% = vehicle
# From the text: This study characterized the effect of CYT-0387 on hepcidin production in HepG2 cells, a hepatocellular carcinoma cell line. Bone morphogenic proteins (BMPs) is shown to be involved in the transcriptional induction of hepcidin in hepatocytes by facilitating the association of constitutively active Type-II BMP receptor kinases (BMPR-kinase) with Type-I BMPR-kinase (Andriopoulos, et al. Nat Genet, 2009. 41(4): p482-7; Zhao, et al., J Clin Invest, 2013. 123(6): p2337-43).
# HepG2 cells were preincubated for 2 hours with CYT-0387 (ranging from 0 μM to 10 μM) in the presence of 1% FBS then stimulated for 6 hours with 10 ng/mL of BMP6. Total RNA was isolated from the cells and analyzed for the levels of hepcidin by qRT-PCR. GUSB (glucuronidase, beta) was used as a house keeping control to normalize the levels measured by qRT-PCR. The percentage of hepcidin fold-change induction was calculated (100% is equal to hepcidin induction in vehicle treated cells) and summarized in Table 9.
compound,measurement,setting,value
"N#CCNC(=O)c1ccc(-c2ccnc(Nc3ccc(N4CCOCC4)cc3)n2)cc1 [CYT-0387 Form II, N-(cyanomethyl)-4-(2-(4-morpholinophenylamino)pyrimidin-4-yl)benzamide dihydrochloride monohydrate Form II]",main oxidative degradation products,"[1]; 0.1% ascorbic acid, 60° C. (data not shown)",not observed
same,amount degraded,"[1]; in the presence of 0.1% (w/v) propyl gallate or BHA, 60° C., up to 7 days",Less than one percent
same,Total Degradation,"[1]; pH 4 aqueous buffer, 60° C., control, no antioxidant, day 0",0.29%
same,Total Degradation,"[1]; pH 4 aqueous buffer, 60° C., control, no antioxidant, day 5",17.24%
same,Total Degradation,"[1]; pH 4 aqueous buffer, 60° C., control, no antioxidant, day 7",21.84%
same,Total Degradation,"[1]; pH 4 buffer, 60° C., BHA 0.001% w/v, day 0",0.30%
same,Total Degradation,"[1]; pH 4 buffer, 60° C., BHA 0.001% w/v, day 5",7.64%
same,Total Degradation,"[1]; pH 4 buffer, 60° C., BHA 0.001% w/v, day 7",13.76%
same,Total Degradation,"[1]; pH 4 buffer, 60° C., BHA 0.01% w/v, day 0",0.55%
same,Total Degradation,"[1]; pH 4 buffer, 60° C., BHA 0.01% w/v, day 5",1.75%
same,Total Degradation,"[1]; pH 4 buffer, 60° C., BHA 0.01% w/v, day 7",3.04%
same,Total Degradation,"[1]; pH 4 buffer, 60° C., BHA 0.1% w/v, day 0",0.45%
same,Total Degradation,"[1]; pH 4 buffer, 60° C., BHA 0.1% w/v, day 5",0.50%
same,Total Degradation,"[1]; pH 4 buffer, 60° C., BHA 0.1% w/v, day 7",1.24%
same,Total Degradation,"[1]; pH 4 buffer, 60° C., BHT 0.1% w/v, day 0",0.06%
same,Total Degradation,"[1]; pH 4 buffer, 60° C., BHT 0.1% w/v, day 5",1.71%
same,Total Degradation,"[1]; pH 4 buffer, 60° C., BHT 0.1% w/v, day 7",4.35%
same,Total Degradation,"[1]; pH 4 buffer, 60° C., ascorbic acid 0.001% w/v, day 0",0.51%
same,Total Degradation,"[1]; pH 4 buffer, 60° C., ascorbic acid 0.001% w/v, day 5",17.95%
same,Total Degradation,"[1]; pH 4 buffer, 60° C., ascorbic acid 0.001% w/v, day 7",21.28%
same,Total Degradation,"[1]; pH 4 buffer, 60° C., ascorbic acid 0.01% w/v, day 0",0.20%
same,Total Degradation,"[1]; pH 4 buffer, 60° C., ascorbic acid 0.01% w/v, day 5",1.58%
same,Total Degradation,"[1]; pH 4 buffer, 60° C., ascorbic acid 0.01% w/v, day 7",1.78%
same,Total Degradation,"[1]; pH 4 buffer, 60° C., propyl gallate 0.001% w/v, day 0",0.22%
same,Total Degradation,"[1]; pH 4 buffer, 60° C., propyl gallate 0.001% w/v, day 5",1.98%
same,Total Degradation,"[1]; pH 4 buffer, 60° C., propyl gallate 0.001% w/v, day 7",4.32%
same,Total Degradation,"[1]; pH 4 buffer, 60° C., propyl gallate 0.01% w/v, day 0",0.22%
same,Total Degradation,"[1]; pH 4 buffer, 60° C., propyl gallate 0.01% w/v, day 5",0.38%
same,Total Degradation,"[1]; pH 4 buffer, 60° C., propyl gallate 0.01% w/v, day 7",0.72%
same,Total Degradation,"[1]; pH 4 buffer, 60° C., propyl gallate 0.1% w/v, day 0",0.29%
same,Total Degradation,"[1]; pH 4 buffer, 60° C., propyl gallate 0.1% w/v, day 5",0.31%
same,Total Degradation,"[1]; pH 4 buffer, 60° C., propyl gallate 0.1% w/v, day 7",0.32%
same,Total Degradation,"[1]; pH 4 buffer, 60° C., sodium metabisulfite 0.1% w/v, day 0",0.33%
same,Total Degradation,"[1]; pH 4 buffer, 60° C., sodium metabisulfite 0.1% w/v, day 5",43.83%
same,Total Degradation,"[1]; pH 4 buffer, 60° C., sodium metabisulfite 0.1% w/v, day 7",46.31%
same,bioavailability compared to CYT-0387 dihydrochloride anhydrous Form I and CYT-0387 free base,[2],increased bioavailability
"N#CCNC(=O)c1ccc(-c2ccnc(Nc3ccc(N4CCOCC4)cc3)n2)cc1 [CYT-0387, N-(cyanomethyl)-4-(2-(4-morpholinophenylamino)pyrimidin-4-yl)benzamide]",dose proportionality of plasma exposures,[3],less-than-dose-proportionally
same,effect on BMP6-mediated hepcidin induction,"[4]; 0 μM to 10 μM, HepG2",dose-dependent inhibition
same,hepcidin fold-change induction (normalized percentage),[4]; 0.020 μM,115%
same,hepcidin fold-change induction (normalized percentage),[4]; 0.039 μM,91%
same,hepcidin fold-change induction (normalized percentage),[4]; 0.078 μM,74%
same,hepcidin fold-change induction (normalized percentage),[4]; 0.156 μM,86%
same,hepcidin fold-change induction (normalized percentage),[4]; 0.313 μM,89%
same,hepcidin fold-change induction (normalized percentage),[4]; 0.625 μM,45%
same,hepcidin fold-change induction (normalized percentage),[4]; 1.25 μM,28%
same,hepcidin fold-change induction (normalized percentage),[4]; 2.5 μM,6%
same,hepcidin fold-change induction (normalized percentage),[4]; 5.0 μM,−4%
same,hepcidin fold-change induction (normalized percentage),[4]; 10.0 μM,−3%
